# Results: paper PMC10601079 (ACS Omega, 2023)
# Test system: ACS
# Experiment: coupled spectrophotometric assay of AMP formation
# Format: biochemical, Gordonia sp. NB4-1Y
# Settings: 2.5 mM ATP, 1.5 mM CoA, 5 mM MgCl2, 1 mM DTT, 50 mM potassium phosphate pH 7.5, 25 °C
row,Km [mM],Compound
1,12.5 ± 0.7,"O=C(O)CCCC(F)(F)F [1:4 FTCA, 5,5,5-trifluoropentanoic acid]"
2,78.3 ± 7.4,CC(=O)O [acetate]
3,0.109 ± 0.011,CCCCC(=O)O [pentanoic acid]
4,1.7 ± 0.2,CCC(=O)O [propionic acid]
